Measured values reported in PubChem BioAssay AID1845194 (Molecular Pharmacology Branch, DTP, NCI, 2023).
“And” between values parts separate entries of the source, which are not always exact repeats. Equal entries are not always repeated.

Tested on: 287954-098-R-J1 tumor spheroid viability
Experiment: Anticancer human tumor 287954-098-R-J1 patient-derived Ewing sarcoma cell line growth inhibition
Conditions: spheroids with HUVEC and MSC; for viability, T/C: stronger effect = lower value
In short: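 Complex spheroids of malignant cells with endothelial cells and mesenchymal stem cells; agents alone or combined, from near clinical Cmax (or 10 microM if unknown) down in half-log steps, 0.25% DMSO final.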

[1] = curve of first compound, second compound 0.003 µM
[2] = second compound 0.003 µM, first compound 0.0316 µM
[3] = second compound 0.003 µM, first compound 0.1 µM
[4] = second compound 0.003 µM, first compound 0.316 µM
[5] = second compound 0.003 µM, first compound 1 µM
[6] = second compound 0.003 µM, first compound 3.16 µM
[7] = second compound 0.003 µM, first compound 10 µM
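Note: spheroids exposed to compound for 7 days before viability readout.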
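Throughout, for viability, T/C: luminescent signal taken as surrogate of viable cell content; 100% = DMSO vehicle control viability and lower means growth inhibition.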

COc1cc(C)[nH]c(=O)c1CN1CCc2c(Cl)cc(C(OC)C3COC3)c(Cl)c2C1=O (configuration not stated) + COc1cc2c(cc1O)CCNC21CSC2c3c(OC(C)=O)c(C)c4c(c3C(COC1=O)N1C(O)C3Cc5cc(C)c(OC)c(O)c5C(C21)N3C)OCO4
IC50 (curve of first compound, second compound 30 pM): > 10 µM
IC50 (curve of first compound, second compound 94.9 pM): > 10 µM
IC50 (curve of first compound, second compound 0.0003 µM): > 10 µM
IC50 (curve of first compound, second compound 0.000949 µM): < 0.0316 µM
IC50 [1]: < 0.0316 µM
viability, T/C (second compound 30 pM, first compound 0.0316 µM): 96.5%
viability, T/C (second compound 30 pM, first compound 0.1 µM): 94.2%
viability, T/C (second compound 30 pM, first compound 0.316 µM): 87.3%
viability, T/C (second compound 30 pM, first compound 1 µM): 92.8%
viability, T/C (second compound 30 pM, first compound 3.16 µM): 104%
viability, T/C (second compound 30 pM, first compound 10 µM): 89.9%
viability, T/C (second compound 94.9 pM, first compound 0.0316 µM): 108%
viability, T/C (second compound 94.9 pM, first compound 0.1 µM): 101%
viability, T/C (second compound 94.9 pM, first compound 0.316 µM): 94.5%
viability, T/C (second compound 94.9 pM, first compound 1 µM): 94.1%
viability, T/C (second compound 94.9 pM, first compound 3.16 µM): 91.3%
viability, T/C (second compound 94.9 pM, first compound 10 µM): 94.1%
viability, T/C (second compound 0.0003 µM, first compound 0.0316 µM): 104%
viability, T/C (second compound 0.0003 µM, first compound 0.1 µM): 102%
viability, T/C (second compound 0.0003 µM, first compound 0.316 µM): 92.1%
viability, T/C (second compound 0.0003 µM, first compound 1 µM): 95.5%
viability, T/C (second compound 0.0003 µM, first compound 3.16 µM): 90.9%
viability, T/C (second compound 0.0003 µM, first compound 10 µM): 87.9%
viability, T/C (second compound 0.000949 µM, first compound 0.0316 µM): 0.52%
viability, T/C (second compound 0.000949 µM, first compound 0.1 µM): 0.35%
viability, T/C (second compound 0.000949 µM, first compound 0.316 µM): 0.34%
viability, T/C (second compound 0.000949 µM, first compound 1 µM): 0.36%
viability, T/C (second compound 0.000949 µM, first compound 3.16 µM): 0.25%
viability, T/C (second compound 0.000949 µM, first compound 10 µM): 0.33%
viability, T/C [2]: 0.25%
viability, T/C [3]: 0.27%
viability, T/C [4]: 0.22%
viability, T/C [5]: 0.16%
viability, T/C [6]: 0.16%
viability, T/C [7]: 0.25%

[2H]c1nc(C)nc([2H])c1-c1cc(NC[C@@H](C)c2cccc3c(C(=O)NC)ccnc23)ncn1 + CC[C@@]1(O)C(=O)OCc2c1cc1n(c2=O)Cc2cc3c(CN(C)C)c(O)ccc3nc2-1
IC50 [1]: > 10 µM
IC50 (curve of first compound, second compound 0.00949 µM): > 10 µM
IC50 (curve of first compound, second compound 0.03 µM): < 0.0316 µM
IC50 (curve of first compound, second compound 0.0949 µM): < 0.0316 µM
IC50 (curve of first compound, second compound 0.3 µM): < 0.0316 µM
viability, T/C [2]: 101%
viability, T/C [3]: 109%
viability, T/C [4]: 111%
viability, T/C [5]: 107%
viability, T/C [6]: 96.2%
viability, T/C [7]: 105%
viability, T/C (second compound 0.00949 µM, first compound 0.0316 µM): 104%
viability, T/C (second compound 0.00949 µM, first compound 0.1 µM): 108%
viability, T/C (second compound 0.00949 µM, first compound 0.316 µM): 99.1%
viability, T/C (second compound 0.00949 µM, first compound 1 µM): 106%
viability, T/C (second compound 0.00949 µM, first compound 3.16 µM): 110%
viability, T/C (second compound 0.00949 µM, first compound 10 µM): 109%
viability, T/C (second compound 0.03 µM, first compound 0.0316 µM): 32%
viability, T/C (second compound 0.03 µM, first compound 0.1 µM): 31.6%
viability, T/C (second compound 0.03 µM, first compound 0.316 µM): 47.8%
viability, T/C (second compound 0.03 µM, first compound 1 µM): 10.1%
viability, T/C (second compound 0.03 µM, first compound 3.16 µM): 15.7%
viability, T/C (second compound 0.03 µM, first compound 10 µM): 4.42%
viability, T/C (second compound 0.0949 µM, first compound 0.0316 µM): 1.07%
viability, T/C (second compound 0.0949 µM, first compound 0.1 µM): 0.66%
viability, T/C (second compound 0.0949 µM, first compound 0.316 µM): 0.37%
viability, T/C (second compound 0.0949 µM, first compound 1 µM): 0.51%
viability, T/C (second compound 0.0949 µM, first compound 3.16 µM): 0.49%
viability, T/C (second compound 0.0949 µM, first compound 10 µM): 0.51%
viability, T/C (second compound 0.3 µM, first compound 0.0316 µM): 0.91%
viability, T/C (second compound 0.3 µM, first compound 0.1 µM): 0.5%
viability, T/C (second compound 0.3 µM, first compound 0.316 µM): 0.31%
viability, T/C (second compound 0.3 µM, first compound 1 µM): 0.64%
viability, T/C (second compound 0.3 µM, first compound 3.16 µM): 0.57%
viability, T/C (second compound 0.3 µM, first compound 10 µM): 0.57%

COc1ccc([C@@H](O)c2cc(-c3ncnc4cc(N5CCOCC5)ccc34)c(F)cc2Cl)nn1
viability, T/C (compound 0.0316 µM): 96.1% and 101% and 92.6%
viability, T/C (compound 0.1 µM): 96% and 113% and 96.1%
viability, T/C (compound 0.316 µM): 97% and 107% and 92.6%
viability, T/C (compound 1 µM): 105% (2×) and 102%
viability, T/C (compound 3.16 µM): 109% and 98.1% and 100%
viability, T/C (compound 10 µM): 103% and 87.1% and 82.1%
IC50 (curve of compound): > 10 µM
